Data from paper PMC10033419, “Blocking NS3–NS4B interaction inhibits dengue virus in non-human primates” (Nature, 2023).
“And” between values parts separate entries of the source, which are not always exact repeats. Equal entries are not always repeated. Where two headings read alike, the source gives them in different places.

Key:
DENV-2 RL strain = assay: Day 3 viraemia model, high viral inoculum (10^6 PFU); format: in vivo, AG129 mice
rVSV Indiana = assay: microbe, parasite or virus in culture; format: cell-based, recombinant vesicular stomatitis virus; conditions: Vesicular stomatitis virus, A549
RSV rgRSV224 = assay: microbe, parasite or virus in culture; format: cell-based; conditions: human respiratory syncytial virus, HeLa
Plasma protein binding = format: in vitro ADME; conditions: mouse, mice
DENV-2/16681 = assay: NHP DENV-2 study, plasma viral RNA RT-qPCR; set-up: species or system rhesus macaques (M. mulatta); conditions: rhesus monkey, in vivo
[1] = Pharmacokinetics in mice, i.v. and oral; format: in vivo, CD-1 mice; conditions: for bioavailability: po
Experimental: The housing conditions and experimental procedures were approved by the ethics committee on animal experiments of Janssen Pharmaceutica NV (license number LA1100119). Janssen Pharmaceutica NV has full AAALAC accreditation. […] The blood samples were immediately centrifuged at 4 °C and the plasma was stored at −20 °C. Compound concentrations in the plasma samples were determined using the API 5500 LC–MS/MS system mass spectrometer (Applied Biosystems). […] (Certara).

DENV-2/16681/eGFP = assay: microbe, parasite or virus in culture; format: cell-based; conditions: Dengue virus, DENV2, Vero
[2] = set-up: method as in earlier work; conditions: healthy volunteers ref 4; cited from earlier work
Vero cells = assay: ATPLite cell viability assay; format: cell-based, African green monkey; conditions: individual experiments, listed as 64281802-AAA
Experimental: (§1) In parallel, the toxicity was measured using an ATPLite cell viability luminescence assay (PerkinElmer). The assays were performed in three different cell types (Vero, Huh-7 and THP-1/DC-SIGN) as described in ref. [3] to exclude cell-specific activity of the compound.

[3] = ATPLite cell viability assay; format: cell-based, African green monkey; conditions: African green monkey, Vero cells
Experimental: as §1

[4] = Study 3 - 170410, 0,2 mg/kg/d, first group of 8, individual animals, listed as 64281802-AAA
[5] = Study 3 - 170410, 0,2 mg/kg/d, second group of 8, individual animals, listed as 64281802-AAA
[6] = Study 3 - 170410, 0,6 mg/kg/d, individual animals, listed as 64281802-AAA
[7] = Study 3 - 170410, 20 mg/kg/d, individual animals
[8] = male, CD-1, plasma, mouse oral 1 mg/kg
[9] = male, CD-1, plasma, mouse oral 10 mg/kg
[10] = male, CD-1, plasma, mouse oral 30 mg/kg
[11] = mouse i.v. 2.5 mg/kg, 2.5 mg/kg

COc1cc(N[C@H](C(=O)c2c[nH]c3ccc(OC(F)(F)F)cc23)c2ccc(Cl)cc2OC)cc(S(C)(=O)=O)c1 [JNJ-1802]
Av Log 10 (Ave/Med: median) (DENV-2 RL strain; Study 3 - 170410, 0,2 mg/kg/d, first group of 8, group median): 6.07
Copy number (DENV-2 RL strain; [4]): 1.86E+06 and 1.20E+06 and 1.13E+06 and 8.80E+05 and 2.24E+05 and 2.37E+06
Log 10 (copy number) (DENV-2 RL strain; [4]): 6.27 and 6.08 and 6.05 and 5.94 and 5.35 and 6.38
Av Log 10 (average) (DENV-2 RL strain; Study 3 - 170410, 0,2 mg/kg/d, second group of 8, group average): 5.85
Av Log 10 (Ave/Med: median) (DENV-2 RL strain; Study 3 - 170410, 0,2 mg/kg/d, second group of 8, group median): 6.03
Copy number (DENV-2 RL strain; [5]): 1.58E+06 and 7.37E+04 and 5.97E+06 and 8.67E+05 and 1.42E+06 and 1.06E+06 and 9.43E+04
Log 10 (copy number) (DENV-2 RL strain; [5]): 6.20 and 4.87 and 6.78 and 5.94 and 6.15 and 6.03 and 4.97
Av Log 10 (average) (DENV-2 RL strain; Study 3 - 170410, 0,6 mg/kg/d, group average): 3.92
Av Log 10 (Ave/Med: median) (DENV-2 RL strain; Study 3 - 170410, 0,6 mg/kg/d, group median): 4.48
Copy number (DENV-2 RL strain; [6]): 3.45E+04 and 2.62E+04 and 3.90E+04 and 3.93E+02
Log 10 (copy number) (DENV-2 RL strain; [6]): 5.16 and 4.86 and 4.54 and 4.42 and 4.59 and 2.59
Av Log 10 (average) (DENV-2 RL strain; Study 3 - 170410, 20 mg/kg/d, group average): 2.59
Av Log 10 (Ave/Med: median) (DENV-2 RL strain; Study 3 - 170410, 20 mg/kg/d, group median): 2.59
Copy number (DENV-2 RL strain; [7]): 3.93E+02
Log 10 (copy number) (DENV-2 RL strain; [7]): 2.59
Copy number (DENV-2 RL strain; mouse, in vivo, 6 mg/kg/day): 1.28E+04
EC50 (rVSV Indiana): 6.9 µM
EC50 (RSV rgRSV224; read-out: EC50, Mean): 3.18 µM
EC90 (RSV rgRSV224; read-out: EC90, Mean): 5.46 µM
fraction unbound (Plasma protein binding): < 0.001
DENV RNA in plasma (DENV-2/16681): undetectable DENV RNA levels throughout the study period
Viral load Assay 1 FLAG (DENV-2/16681): BLOQ (key: BLOQ = Below limit of detection)
Viral load Assay 2 FLAG (DENV-2/16681): BLOQ (key: BLOQ = Below limit of detection)
Viral load Assay 2 FLAG (2nd column) (DENV-2/16681): BLOQ (key: BLOQ = Below limit of detection)
day first DENV-RNA positive (≥LLOQ) (DENV-2/16681): 5
day first DENV-RNA positive (≥LLOQ), per animal (DENV-2/16681): 21 and 6 and 10
peak viraemia (DENV-2/16681): comparable to the vehicle controls
clearance ([1]; male, CD-1, in vivo, iv, mouse i.v. 2.5 mg/kg, read-out: CLp): 4.97 ± 1.26 mL/min/kg
Cmax ([1]; male, CD-1, in vivo, mouse oral 3 mg/kg): 501 ± 149 ng/mL
half-life ([1]; male, CD-1, mouse, plasma, iv, 2.5 mg/kg, mouse i.v. 2.5 mg/kg): 6.2 h
bioavailability ([1]; male, CD-1, mouse, plasma, 1 mg/kg, mouse oral 1 mg/kg): 46 ± 6%
bioavailability ([1]; male, CD-1, mouse, plasma, 3 mg/kg, mouse oral 3 mg/kg): 59 ± 28%
bioavailability ([1]; male, CD-1, mouse, plasma, 10 mg/kg, mouse oral 10 mg/kg): > 100%
bioavailability ([1]; male, CD-1, mouse, plasma, 30 mg/kg, mouse oral 30 mg/kg): 121 ± 21%
AUC(0-t) ([1]; male, CD-1, mouse, plasma, mice, single oral dose 1 to 30 mg per kg, read-out: AUC0–24h, range): 1520 to 120000 ng·h/mL
AUC(0-inf) ([1]; male, CD-1, plasma, iv, mouse i.v. 2.5 mg/kg): 8820 ng·h/mL
AUC(0-t) ([1]; male, CD-1, plasma, iv, mouse i.v. 2.5 mg/kg, read-out: AUC(0-24h)): 8240 ng·h/mL
Cmax [1, 8]: 119 ± 26 ng/mL
Tmax [1, 8]: 5 ± 1.7 h
AUC(0-t) ([1]; male, CD-1, plasma, mouse oral 1 mg/kg, read-out: AUC(0-24h)): 1520 ng·h/mL
Tmax ([1]; male, CD-1, plasma, mouse oral 3 mg/kg): 5 ± 1.7 h
AUC(0-t) ([1]; male, CD-1, plasma, mouse oral 3 mg/kg, read-out: AUC(0-24h)): 5780 ng·h/mL
Cmax [1, 9]: 2730 ng/mL
Tmax [1, 9]: 7 h
AUC(0-t) ([1]; male, CD-1, plasma, mouse oral 10 mg/kg, read-out: AUC(0-24h)): 35600 ng·h/mL
Cmax [1, 10]: 7760 ng/mL
Tmax [1, 10]: 6 ± 1.7 h
AUC(0-t) ([1]; male, CD-1, plasma, mouse oral 30 mg/kg, read-out: AUC(0-24h)): 120000 ng·h/mL
Vdssp [1, 11]: 2.51 ± 0.55 L/kg and 2.51 ± 0.553 L/kg
t1/2 [1, 11]: 6.17 ± 0.23 h
F ([1]; mouse oral 1 mg/kg, 1 mg/kg): 46.1+/-6.47%
F ([1]; mouse oral 3 mg/kg, 3 mg/kg): 58.5+/-27.9%
EC50 (DENV-2/16681/eGFP; Vero with 50% HS, read-out: EC50, protein-binding-adjusted): 1400 pM
EC90 (DENV-2/16681/eGFP; Vero with 50% HS, read-out: EC90, protein-binding-adjusted): 0.0048 ± 0.0014 µM
EC50 (DENV-2/16681/eGFP; Vero, mean ± s.d., read-out: EC50): 59 ± 30 pM
EC90 (DENV-2/16681/eGFP; Vero, read-out: EC90): 0.000161 ± 8.3e-05 µM
EC50 (DENV-2/16681/eGFP; two DENV-2 laboratory strains in Vero, Huh-7, C6/36, THP-1/DC-SIGN, read-out: mean EC50, range): 59 to 1240 pM
safety and tolerability in humans [2]: safe and well tolerated
CC50 (Vero cells; Vero cells in presence of 50% HS): > 2.5 µM
CC50 (Vero cells; Vero cells, TOX d4 preseeding): 3.08 µM and 2.4 µM and 2.78 µM and 3.52 µM and 2.2 µM and 2.32 µM and 2.27 µM and 2.31 µM and 2.18 µM
CC50 at 4 d ([3]; TOX d4 preseeding, individual experiments): 3.04 µM
CC50 ([3]; Vero): 2.61 ± 0.47 µM
CC50 ([3]; Vero with 50% HS): > 1.5 µM
